The values that follow come from ChEMBL document CHEMBL6153035, “Natural and Semisynthetic Immunomodulatory Luakuliide Labdane Diterpenoids” (J Nat Prod, 2025).

The structures appear in SMILES notation. Active and inactive are the calls of the source. No cut-off for these calls is given here.

In data set [1] the test system is RAW264.7. Description: Cytotoxicity against LPS-stimulated mouse RAW264.7 cells assessed as reduction in cellular metabolism at 10 uM incubated for 8 hrs by MTT assay. The format is toxicity, cell-based. Particulars: raw264.7, 8 h. In general terms: Tetrazolium assays rely on reduction of a dye to a coloured formazan, in cell work by metabolically active cells.

Data set [2] relates to RAW264.7. The data set is described as follows: Antiinflammatory activity against LPS-stimulated mouse RAW264.7 cells assessed as reduction in TNF production at 1 to 1000 nM preincubated with compound for 8 hrs followed by LPS-induction and measured after 48 hrs by ELISA based assay. Type of data set: functional, cell-based. To be noted: dose 1-1000 nM, time 56.0 hrs. A general note: An ELISA detects its analyte on a solid surface through an enzyme-linked reagent.

The nature of data set [3]: Cytotoxicity against LPS-stimulated mouse BMDM cells assessed as changes in cellular metabolism at 1 to 100 nM for 8 hrs by MTT assay. Type of data set: toxicity, cell-based. Particulars: 0.1 µM, dose 1-100 nM.
Data set [4] is described as follows: Cytotoxicity against LPS-stimulated mouse BMDM cells assessed as reduction in cellular metabolism at 1 to 100 nM incubated for 8 hrs in presence of 500 ng/mL of LPS-stimulation by MTT assay. Type of data set: toxicity, cell-based. Particulars: 0.1 µM, dose 1-100 nM.
Data set [5] can be described thus: Cytotoxicity against IFN-gamma/LPS-stimulated mouse BMDM cells assessed as changes in cellular metabolism at 1 to 100 nM primed with 20 U/mL of IFN-gamma followed by 200 ng/mL of LPS stimulation in presence of compound at 1 to 100 nM for 48 hrs by MTT assay. To be noted: 0.1 µM, dose 1-100 nM. Type of data set: toxicity, cell-based.
In data set [6] the test system is BMDM. The data set is described as follows: Antiinflammatory activity against IFN-gamma and LPS-stimulated mouse BMDM cells assessed as reduction in IL-6 production at 1 to 100 nM primed with 20 U/mL of IFN-gamma followed by 200 ng/mL of LPS stimulation in presence of compound for 48 hrs by ELISA assay. To be noted: dose 1-100 nM. The format is functional, cell-based.

Data set [7] deals with BMDM. Description: Antiinflammatory activity against IFN-gamma and LPS-stimulated mouse BMDM cells assessed as reduction in IL-12 production at 1 to 100 nM primed with 20 U/mL of IFN-gamma followed by 200 ng/mL of LPS stimulation in presence of compound for 48 hrs by ELISA assay. The format is functional, cell-based. To be noted: dose 1-100 nM.
Data set [8] has as its system BMDM. The data set is described as follows: Antiinflammatory activity against IFN-gamma and LPS-stimulated mouse BMDM cells assessed as change in NO production at 1 to 100 nM primed with 20 U/mL of IFN-gamma followed by 200 ng/mL of LPS stimulation in presence of compound for 48 hrs by […] assay. To be noted: dose 1-100 nM. The format is functional, cell-based.
The subject of data set [9] is BMDM. Description: Antiinflammatory activity against IFN-gamma and LPS-stimulated mouse BMDM cells assessed as change in IL-10 secretion at 1 to 100 nM primed with 20 U/mL of IFN-gamma followed by 200 ng/mL of LPS stimulation in presence of compound for 48 hour by ELISA assay. To be noted: dose 1-100 nM. Type of data set: functional, cell-based.
Data set [10] relates to BMDM. The data set is described as follows: Antiinflammatory activity against LPS-stimulated mouse BMDM cells assessed as reduction in IL-6 production at 10 to 100 nM preincubated with compound for 8 hrs followed by LPS-induction and measured after 48 hrs by ELISA assay. Type of data set: functional, cell-based. To be noted: dose 10-100 nM, time 56.0 hrs.
The test system of data set [11] is RAW264.7. Description: Cytotoxicity against LPS-stimulated mouse RAW264.7 cells assessed as reduction in cellular metabolism at 3.2 uM incubated for 8 hrs by MTT assay. Type of data set: toxicity, cell-based. Particulars: raw264.7, 8 h.
The test system of data set [12] is BMDM. Description: Antiinflammatory activity against LPS-stimulated mouse BMDM cells assessed as induction of TNF production at 1 to 100 nM preincubated with compound for 8 hrs followed by LPS-induction and measured after 48 hrs by ELISA assay. The format is functional, cell-based. To be noted: dose 1-100 nM, time 56.0 hrs.
For data set [13], the system named is BMDM. Description: Antiinflammatory activity against LPS-stimulated mouse BMDM cells assessed as reduction in TNF production at 1 to 100 nM preincubated with compound for 8 hrs followed by LPS-induction and measured after 48 hrs by ELISA assay. Type of data set: functional, cell-based. Particulars: dose 1-100 nM, time 56.0 hrs.
Data set [14] concerns BMDM. The data set is described as follows: Antiinflammatory activity against LPS-stimulated mouse BMDM cells assessed as reduction in IL-6 production at 1 to 100 nM preincubated with compound for 8 hrs followed by LPS-induction and measured after 48 hrs by ELISA assay. The format is functional, cell-based. To be noted: dose 1-100 nM, time 56.0 hrs.
In data set [15] the test system is BMDM. The data set is described as follows: Antiinflammatory activity against LPS-stimulated mouse BMDM cells assessed as reduction IL-6 production at 1 to 100 nM preincubated with compound for 8 hrs followed by LPS-induction and measured after 48 hrs by ELISA assay. The format is functional, cell-based. To be noted: dose 1-100 nM, time 56.0 hrs.
Data set [16] relates to BMDM. The data set is described as follows: Antiinflammatory activity against LPS-stimulated mouse BMDM cells assessed as reduction in TNF production preincubated with compound for 8 hrs followed by LPS-induction and measured after 48 hrs by ELISA assay. The format is functional, cell-based. Particulars: dose 1-100 nM, time 56.0 hrs.
The subject of data set [17] is RAW264.7. Description: Cytotoxicity against LPS-stimulated mouse RAW264.7 cells assessed as changes in cellular metabolism at 1 to 10000 nM incubated for 8 hrs by MTT assay. The format is toxicity, cell-based. Particulars: raw264.7, 8 h, 10 µM, dose 1-10000 nM.

For the compound `CC1=C(CCC2=CCOC2=O)[C@@]2(C=O)CCCC(C)(C)[C@@H]2CC1`, the Activity result in the data set on RAW264.7 [1] is listed as “Toxic”; in data set [3], “Non-toxic”; in data set [4], “Toxic”; in data set [5], “Toxic”. Moreover, the result with RAW264.7 [2] and with BMDM [8] was inactive. The outcome in the data set with BMDM [6], in the data set on BMDM [7], in the data set on BMDM [9] and in the data set with BMDM [10] was Active.
Consider `CC1=C(CCc2ccoc2)[C@@]2(C=O)CCCC(C)(C)[C@@H]2CC1`, for which the Activity result was “Toxic” in the data set on RAW264.7 [1], “Toxic” in the data set with RAW264.7 [11], “Non-toxic” in data set [3] and “Toxic” in data set [4]. For the same compound, the outcome in the data set on RAW264.7 [2], in the data set with BMDM [6] and in the data set with BMDM [7] was inactive. The outcome in the data set on BMDM [10] and in the data set with BMDM [12] was Active.
`CC(=O)O[C@@H]1O[C@@]2(C)CC[C@H]3C(C)(C)CCC[C@@]13[C@H]2CCc1ccoc1`: the Activity entry in the data set on RAW264.7 [1] and in the data set with RAW264.7 [11] was “Toxic” in each case. Also, the result with RAW264.7 [2] was Active.
`CC1(C)CCC[C@@]23[C@H](O)O[C@@](C)(CC[C@@H]12)[C@@H]3CCC1=CCN(CC(=O)O)C1=O`: the results for the Activity entry (in the data set on RAW264.7 [1]; in [3]) were “Toxic” and “Non-toxic”, respectively. The result in the data set on RAW264.7 [2], in the data set on BMDM [13] and in the data set on BMDM [14] was Active.
Turning to `CC1=CC[C@H]2C(C)(C)CCC[C@]2(C=O)[C@H]1CCc1ccoc1`, the Activity result in the data set on RAW264.7 [1] is “Toxic”; in the data set with RAW264.7 [11], “Toxic”; in data set [3], “Non-toxic”; in [4] it was “Toxic”. Also, the outcome in the data set on RAW264.7 [2], in the data set on BMDM [15], with BMDM [6] and in the data set on BMDM [7] was inactive. Besides, in the data set on BMDM [12], the result was Active.
Regarding `CC1=C(CCc2cc(Br)oc2Br)[C@@]2(C=O)CCCC(C)(C)[C@@H]2CC1`, the Activity entry in the data set with RAW264.7 [1] is “Toxic”; in the data set with RAW264.7 [11] it was “Toxic”; in data set [3], “Non-toxic”; with BMDM [16], “Dose-dependent-effect”; in data set [5], “Toxic”. The result in the data set on RAW264.7 [2], in the data set on BMDM [15] and in the data set on BMDM [8] was inactive. Further, the outcome in the data set on BMDM [6], with BMDM [7] and in the data set with BMDM [9] was Active.
For `CO[C@@H]1O[C@@]2(C)CC[C@H]3C(C)(C)CCC[C@@]13[C@H]2CCC1=CCOC1=O`, the Activity result with RAW264.7 [1] was “Toxic”; in data set [3], “Non-toxic”; in [4] it was “Toxic”; in data set [5], “Toxic”. Moreover, the outcome in the data set on RAW264.7 [2] and with BMDM [8] was inactive. The outcome in the data set with BMDM [6], with BMDM [7], in the data set with BMDM [9] and with BMDM [12] was Active.
`CC1(C)CCC[C@@]23[C@H](O)O[C@@](C)(CC[C@@H]12)[C@@H]3CCc1ccoc1`: the Activity entry is listed as “Non-toxic” in the data set with RAW264.7 [17], “Non-toxic” in [3] and “Toxic” in [4]. Besides, the result in the data set with RAW264.7 [2] was inactive. The outcome in the data set with BMDM [12] was Active.
